Assay results: PubChem BioAssay (NCI)
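48-hour exposure; five concentrations; linearly interpolated endpoints. TGI: total growth inhibition.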

Legend:
Experiment in all cases: NCI-60 cell line screen, 48 h
786-0 renal = tested on: 786-0 renal
A498 renal = tested on: A498 renal
A549 NSCLC = tested on: A549 NSCLC
ACHN renal = tested on: ACHN renal
BT-549 breast = tested on: BT-549 breast
CAKI-1 renal = tested on: CAKI-1 renal
COLO 205 colon = tested on: COLO 205 colon
DU-145 prostate = tested on: DU-145 prostate
EKVX NSCLC = tested on: EKVX NSCLC
HCC-2998 colon = tested on: HCC-2998 colon
HCT-116 colon = tested on: HCT-116 colon
HCT-15 colon = tested on: HCT-15 colon
HL-60(TB) leukemia = tested on: HL-60(TB) leukemia
HOP-62 NSCLC = tested on: HOP-62 NSCLC
HOP-92 NSCLC = tested on: HOP-92 NSCLC
HS 578T breast = tested on: HS 578T breast
HT29 colon = tested on: HT29 colon
IGROV1 ovarian = tested on: IGROV1 ovarian
K-562 leukemia = tested on: K-562 leukemia
KM12 colon = tested on: KM12 colon
LOX IMVI melanoma = tested on: LOX IMVI melanoma
M14 melanoma = tested on: M14 melanoma
MALME-3M melanoma = tested on: MALME-3M melanoma
MCF7 breast = tested on: MCF7 breast
MDA-MB-231 breast = tested on: MDA-MB-231 breast
MDA-MB-435 = tested on: MDA-MB-435
MDA-N = tested on: MDA-N
MOLT-4 leukemia = tested on: MOLT-4 leukemia
NCI-H226 lung = tested on: NCI-H226 lung
NCI-H23 lung = tested on: NCI-H23 lung
NCI-H460 lung = tested on: NCI-H460 lung
NCI-H522 lung = tested on: NCI-H522 lung
NCI/ADR-RES ovarian = tested on: NCI/ADR-RES ovarian
OVCAR-3 ovarian = tested on: OVCAR-3 ovarian
OVCAR-4 ovarian = tested on: OVCAR-4 ovarian
OVCAR-5 ovarian = tested on: OVCAR-5 ovarian
OVCAR-8 ovarian = tested on: OVCAR-8 ovarian
PC-3 prostate = tested on: PC-3 prostate
RPMI-8226 leukemia = tested on: RPMI-8226 leukemia
RXF 393 renal = tested on: RXF 393 renal
SF-268 CNS = tested on: SF-268 CNS
SF-295 CNS = tested on: SF-295 CNS
SF-539 CNS = tested on: SF-539 CNS
SK-MEL-2 melanoma = tested on: SK-MEL-2 melanoma
SK-MEL-28 melanoma = tested on: SK-MEL-28 melanoma
SK-MEL-5 melanoma = tested on: SK-MEL-5 melanoma
SK-OV-3 ovarian = tested on: SK-OV-3 ovarian
SN12C renal = tested on: SN12C renal
SNB-19 CNS = tested on: SNB-19 CNS
SNB-75 CNS = tested on: SNB-75 CNS
SR leukemia = tested on: SR leukemia
SW-620 colon = tested on: SW-620 colon
T-47D breast = tested on: T-47D breast
TK-10 renal = tested on: TK-10 renal
U251 CNS = tested on: U251 CNS
UACC-257 melanoma = tested on: UACC-257 melanoma
UACC-62 melanoma = tested on: UACC-62 melanoma
UO-31 renal = tested on: UO-31 renal
CCRF-CEM leukemia = tested on: CCRF-CEM leukemia

Measured: TGI

CC1CC(C)CN(S(=O)(=O)c2cc(Cl)c(Oc3ccc([N+](=O)[O-])cc3Cl)c(Cl)c2)C1 (stereo not drawn)
not listed: CCRF-CEM leukemia
> 100 µM: all other assays above

CNN1C(=O)c2c(N)c(C#N)c(-c3ccccc3)c(-c3ccccc3)c2C1=O
not listed: HOP-62 NSCLC | HT29 colon | NCI-H23 lung | SK-OV-3 ovarian
> 100 µM: all other assays above
